In patent US20200370080A1, “ENANTIONSELECTIVE ENZYMATIC SULFOXIDATION OF CHIRAL ARYLSULFIDES” (Bayer Aktiengesellschaft, priority 2017, published 2020):

B1: styrene monooxygenase subunits StyA and StyB: two-component styrene monooxygenase (SEQ ID NO 5 and 6) expressed in E. coli JM101 from the pStyAB_ADP1_lac vector (protein, listed as Acinetobacter baylyi)
chain 1: MRRIAIVGAGQSGLQLGLSLLDTGYDVTIVTNRTADQIRQGKVMSSQCMFHTALQTERDVGLNFWEEQCPAVEGIGFTLVSPETGKPAFSWSARLERYAQSVDQRVKMPYWIEEFERRGGKLIIQDVGIDELEQLTTEYELVLLAAGKGEVVKQFVRDDERSTFDKPQRALALTYVTGMKPMSPYSRVTFNVIPGVGEYFCFPALTVTGPCEIMVFEGIPGGPMDCWQDAKTPEQHLQMSKDILNTYLPWEAERCENIEITDAGGYLAGRFPPSVRKPILTLPSGRQVFGMADALVVNDPITGQGSNNAAKCSKIYFDAILAHDTQSFTPEWMQQTFERYWSYAEKVVAWTNSLLVPPQPQMIDVLAAASQNQAIASTIANNFDDPRNFSPWWFDAEQAQHFIESKSCQKVA
chain 2: MNINTSHELGLKPIDTENPREIRNLLGQFATGVTVITTRGRDGRKIGMTANSFSSLSLDPPLILWSLSKTAPSLPDFTEAEYFAIHMLAQEHHSLSGHFARGSEDKFASIAHRECERGLPLLEDVLATLVCKNINQYEGGDHLIFIGQIEHYQQRIGEPLVFHAGKYRIAAEHPELSA

How the values were obtained:
[1] = test system: styrene monooxygenase StyA/StyB from A. baylyi; assay: in vitro sulfoxidation of arylsulfide substrates by purified StyA (oxygenase) with excess StyB (reductase), HPLC analysis; type: biochemical, Acinetobacter baylyi sp. ADP1; conditions: for ee %: enantiomeric excess of sulfoxide formed, abs. configuration S; for yield %): enzymatic conversion to sulfoxide, 2 mM substrate (1 mM in case of clouding), purified StyA with excess StyB
Experimental: In order to do so, the StyA unit from Acinetobacter sp. ADP1 was cloned into a pET-vector inducible with IPTG and expressed in E. coli BL21 pLysS grown in LB medium (10 g/l tryptone, 5 g/l yeast extract, 10 g/l or 20 g/l NaCl, 100 μg/ml ampicillin, 50 μg/ml Chloramphenicol). For the expression a 5 ml overnight culture was used as inoculum for a fermenter with […] or a flask with 500 ml medium. The cells were cultured at 37° C. until the culture reached an optical density of 0.6 which was the threshold for induction of recombinant gene expression using IPTG (0.1 mM). The culture was performed for another 18 h at 20° C. […] The cells were harvested and the cellular walls were disrupted using a French press. […] The target protein was purified for the subsequent characterization.
The StyB unit from Acinetobacter baylyi sp. ADP1 was expressed in a similar fashion.
In order to test the activity the StyB unit (reductase) was employed in excess to supply the StyA unit (oxygenase) with sufficient reduced FAD. Therefore, NADH was produced by a format-dehydrogenase from format and NAD in the respective enzymatic reaction.
The enzyme conversion rate was probed every minute for 15 min for the kinetic analysis. If possible, i.e. soluble, 2 mM substrate were employed. In case of clouding 1 mM substrate was employed. The substrate was dissolved in ethanol. Reactions in the probes were stopped with a 1:1 mixture of ice-cold methanol and acetonitrile and afterwards analyzed using HPLC.
The educt and the product were analyzed on an Agilent 1100 HPLC device.

E. coli cells = assay: toxicity of educt and product: growth of the production strain at different concentrations; type: cell-based
Experimental: A person skilled in the art knows how to determine the maximum rate at which the enzyme can process the substrate and thus how much substrate can be added to a given reaction continuously or in a given time interval. To understand the toxicity of educt and product the growth rate of the production strain is determined in presence of different educt and product concentration.

[2] = resting cell activity of whole-cell biocatalyst (E. coli JM101 pStyAB_ADP1_lac); type: cell-based; conditions: E. coli JM101, M9 minimal medium, 4.8 h after induction with 1 mM IPTG
Experimental: In detail, the styrene monooxygenase subunits StyA and StyB were expressed in E. coli JM101 cultivated in M9 minimal medium from the pStyAB_ADP1_lac vector. To find the maximum specific activity samples were taken after previously defined time points after addition of the inducer (1 mM IPTG). Cells were retrieved from the actively growing culture and used for the determination of the resting cell activity. As shown in FIG. 3 the specific activity increased steadily from the time point of induction and reached a maximum of 450±30 U/gcdw 4.8 h after induction.
In detail, the specific activity was quantified as follows: StyA and StyB were expressed in E. coli JM101 carrying the pStyAB_ADP1_lac vector. Cells were cultivated in M9 minimal medium and induced at an OD of 0.6-0.8. […]
Successful separation of the product i.e. the S-enantiomer of 2-chloro-4-(methylsulfinylmethyl)pyridine was achieved on a Dionex UltiMate 3000 HPLC system (Thermo Scientific) equipped with a non-polar HPLC column with C18 matrix (Accucore C18, 3×150 mm, 2.6 μm particle size, Thermo Scientific). […] The organic compounds were detected by absorption using diode array detector (DAD) at a wavelength of 210 nm. […]

| Molecule | ee % [1] | yield %) [1] | further results |
| --- | --- | --- | --- |
| CSc1ccc(Br)cc1 [p(Br)—Ph—S—CH3, 4-bromophenyl methyl sulfide] | 98.1% | 58% | – |
| CSc1ccc(C)cc1 [p(CH3)—Ph—S—CH3, 4-methylphenyl methyl sulfide] | 97.6% | 42% | – |
| C[S@+]([O-])Cc1ccnc(Cl)c1 [2-Chloro-4-((methyl-S-sulfinyl)methyl)pyridine] | – | – | toxicity of the product compared with the substrate (E. coli cells; E. coli cells): significantly lower |
| CSc1ccccc1 [Ph—S—CH3, phenyl methyl sulfide] | 99.3% | 48% | – |
| C=CSc1ccccc1 [Ph—S—CH═CH2, phenyl vinyl sulfide] | 99.7% | 40% | – |
| CSCc1ccnc(Cl)c1 [2-chloro-4-(methylsulfanylmethyl)pyridine] | – | – | substrate concentration that entirely inhibited the growth of the cells (E. coli cells; E. coli cells expressing StyA and StyB): above 10 mM |
| CSc1ccc(Cl)cc1 [p(Cl)—Ph—S—CH3, 4-chlorophenyl methyl sulfide] | 95.5% | 34% | – |
| CSc1ccc(F)cc1 [p(F)—Ph—S—CH3, 4-fluorophenyl methyl sulfide] | 99.0% | 55% | – |
| B1 | – | – | maximum specific activity [2]: 450±30 U/gcdw |
